Data reported in patent publication US20090105072A1, “2-(Pyridin-2-Yl)-Pyrimidines for Use as Fungicides” (priority 2007, published 2009).

System: Puccinia recondita
Assay: Curative activity against brown rust of wheat caused by Puccinia recondita
Type: in vivo
Details: 250 ppm, wheat seedlings cultivar Kanzler, 7 days after treatment, untreated plants 90% infected
Experimental: The active compounds were prepared separately or together as a stock solution with 25 mg of active compound which was made up to 10 ml using a mixture of acetone and/or dimethyl sulfoxide (DMSO) and the emulsifier Wettoll® EM 31 (wetting agent having emulsifying and dispersing action based on the ethoxylated alkylphenols) in a volume ratio of solvent/emulsifier of 99 to 1. The mixture was then made up with water to 100 ml. This stock solution was diluted with the solvent/emulsifier/water mixture described to the concentration of active compound stated below.
Leaves of potted wheat seedlings of the cultivar “Kanzler” were inoculated with a spore suspension of brown rust of wheat (Puccinia recondite). The pots were then placed in a chamber with high atmospheric humidity (90 to 95%) and 20 to 22° C. for 24 hours. During this time, the spores germinated and the germ tubes penetrated into the leaf tissue. The next day, the infected plants were sprayed to runoff point with the above-described active compound solution having the active compound concentration stated below. After the spray coating had dried on, the test plants were cultivated in a greenhouse at temperatures between 20 and 22° C. and 65 to 70% relative atmospheric humidity for 7 days. The extent of the rust fungus development on the leaves was then determined.

Row | SMILES | infection (extent of the rust fungus development on the leaves)
1 | COc1ccc(-c2nc(-c3ncc4c(n3)CCCCC4)ccc2C)cn1 [Example 44] | no infection
2 | COc1ccc(-c2nc(-c3ncc4c(n3)CCCCC4)ccc2C)cn1 [drawing 28] | 90%
